From US20190225557A1, “IMPROVED UREA-BASED C[…] SULPHUR AND METHOD FOR THE MANUFACTURE THEREOF” (YARA INT[…], priority 2016, published 2019)

Assays:
[1] = type: physicochemical; settings: urea + 10.5% ES + 500 ppm nBTPT as Amiplus liquid (Exp. H-M); open pots in nissenhut; measured after 28 days (ranking given as after 14 days)
Protocol: (§1) 1.2 kg of solid fertilizer material was added to a lab scale drum. In a next step, the nBTPT material was slowly added and subsequently followed, if applied, by an alkaline or alkaline-forming inorganic or organic compound. A residence time of 10 minutes was applied and the rotating speed of the drum was consequently the same in each experiment. In case a moisture-repellent coating was added, a nebulizer was used and, depending on the order of addition, the moisture-repellent coating was added before or after addition of the nBTPT material. Before use, the moisture-repellent coating was preheated to 80° C.
Typically, a day/night cycle is generated in the nissenhut, with temperature fluctuations between 0 to 42° C. and fluctuations of relative humidity between 20 and 90%, which can be compared with real life storage in silos.
The samples were stored 28 days in open pots in nissenhut.
The samples were stored for 28 days in open pots in nissenhut.

[2] = Accelerated storage stability of nBTPT on fertilizer granules (HPLC analysis of nBTPT content); type: physicochemical; settings: nBTPT formulations (500 ppm powder or Agrotain Ultra) applied onto urea comprising 9% elemental sulphur (samples B, C); 12 days at 70° C. in closed plastic container
Protocol: as §1
For some samples, an accelerated stability test was done after storing these samples at elevated temperatures: • Oven of 30° C., open to air • 70° C. in a closed plastic container
HPLC analysis of nBTPT is done as described in the procedure CEN 15688-2007.
This set of samples was stored at room temperature (20-25° C.) in bags and at elevated temperature (30° C. and 70° C., accelerated stability test).

Compound | effectivity of the stabilizers (ranking) on stability of nBTPT [1] | nBTPT level after storage [2] [weight %]
O=C([O-])[O-].[Ca+2] [CaCO3, calcium carbonate] | CaCO3═MgO>CaO>ZnO>Et3N>no stabilizer | 
[O]=[Ca] [CaO, calcium oxide] | CaCO3═MgO>CaO>ZnO>Et3N>no stabilizer | 
[O]=[Mg] [MgO, magnesium oxide] | CaCO3═MgO>CaO>ZnO>Et3N>no stabilizer | 
[O]=[Zn] [ZnO, zinc oxide] | CaCO3═MgO>CaO>ZnO>Et3N>no stabilizer | 
CCCCNP(N)(N)=S [nBTPT, N-(n-butyl) thiophosphoric triamide] |  | 0
